Reference: publication PMC7698016 (Metabolites, 2020)

Biological target: T1, AKR1C3 (aldo-keto reductase 1C3) (Homo sapiens, UniProt P42330)
T1 construct: human recombinant enzyme expressed in E. coli (Novus NBC1-21051)
Test: Km by real-time NADPH fluorescence ([…]); GC-QToF gave Km […]
Assay type: biochemical

T1 sequence (P42330 whole entry): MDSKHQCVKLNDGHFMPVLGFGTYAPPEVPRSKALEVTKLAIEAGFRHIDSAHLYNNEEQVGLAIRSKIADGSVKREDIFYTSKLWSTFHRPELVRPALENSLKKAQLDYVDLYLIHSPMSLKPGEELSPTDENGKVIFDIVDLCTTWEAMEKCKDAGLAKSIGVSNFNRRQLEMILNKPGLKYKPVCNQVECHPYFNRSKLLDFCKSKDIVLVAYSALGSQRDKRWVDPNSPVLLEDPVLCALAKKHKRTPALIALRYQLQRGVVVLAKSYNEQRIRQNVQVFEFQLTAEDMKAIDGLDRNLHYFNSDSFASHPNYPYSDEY

With C[C@]12CC[C@@H](O)C[C@H]1CC[C@@H]1[C@@H]2CC[C@]2(C)C(=O)CC[C@@H]12 [D, 3α-hydroxy-5β-androstan-17-one] the Km was 9.7 µM.
